What all share (format): biochemical
The target in assay [1] is T1, Src (Homo sapiens, UniProt P12931).
T1 construct: recombinant catalytic domain of c-Src
Kind of assay: CycLex c-Src kinase assay (IC90).

Assay [2] deals with T2, CTSS (Homo sapiens, UniProt P25774). Kind of assay: fluorometric CTSS screening kit (BioVision K149), AFC substrate.
Assay [3] has as its target T1, Src. Briefly: CycLex c-Src kinase assay (IC90); supported by DARTS in MDA-MB-231 lysate.
Assay [4] concerns the target T2, CTSS. Kind of assay: fluorometric CTSS screening kit (BioVision K149), AFC substrate. This is another data set of the same source.
Assay [5] concerns the target T2, CTSS. Briefly: fluorometric CTSS screening kit (BioVision K149), positive control.

T2 sequence (P25774 115-331): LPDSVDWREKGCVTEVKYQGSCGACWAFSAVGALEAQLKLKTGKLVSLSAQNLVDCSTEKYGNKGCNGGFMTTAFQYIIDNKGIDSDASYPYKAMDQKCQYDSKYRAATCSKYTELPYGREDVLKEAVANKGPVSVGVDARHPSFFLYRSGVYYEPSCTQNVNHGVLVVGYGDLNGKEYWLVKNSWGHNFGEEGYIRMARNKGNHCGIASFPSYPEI
T1 sequence (P12931 254-536 limits assumed): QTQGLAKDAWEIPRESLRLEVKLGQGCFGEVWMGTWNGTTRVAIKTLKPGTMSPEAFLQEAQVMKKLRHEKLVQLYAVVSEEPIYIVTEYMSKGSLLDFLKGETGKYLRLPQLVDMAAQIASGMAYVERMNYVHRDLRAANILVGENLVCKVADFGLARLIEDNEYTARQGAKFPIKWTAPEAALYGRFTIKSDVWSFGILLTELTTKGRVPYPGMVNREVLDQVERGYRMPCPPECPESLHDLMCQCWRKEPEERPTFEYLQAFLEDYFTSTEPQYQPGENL

A word on the IC90: it is the point of the concentration-response curve where the effect stands at 90%. For `COc1ccc(Cl)c(Nc2ncnc3cc(OCC4CCN(C)CC4)c(OC)cc23)c1` [AZM-475271], on Src [1], it took 27.3 µM to reach the 90% level (IC90). This lies in the double-digit micromolar range.
One may read the IC50 as the concentration that gives 50% inhibition. Compound `Cc1nc2c(c(C)c1O)CC(=O)N2` [BJ-2302] returned an IC50 on CTSS [2] of 5.1 µM. In addition, on Src [3], it took 3.2 µM to reach the 90% level (IC90).
For `Cc1nc2[nH]c(=O)[nH]c2c(C)c1O` [BJ-2304], on CTSS [4], the “fluorometric CTSS screening kit (BioVision K149), AFC substrate” value is “BJ-2302 exhibited the strongest suppression of CTSS activity (Fig. 3b), followed by BJ-2304”.
Turning to `CC(C)C[C@H](NC(=O)[C@H](Cc1ccccc1)NC(=O)OCc1ccccc1)C(=O)C=O` [Z-FL-COCHO], at CTSS [5], 0.19 nM corresponded to half-maximal inhibition (IC50).

Source of the values: PMC6123788, “Down-regulation of cathepsin S and matrix metalloproteinase-9 via Src, a non-receptor tyrosine kinase, suppresses triple-negative breast cancer growth and metastasis” (Experimental & Molecular Medicine, 2018).
